Numbers after ± are expanded uncertainties.
Assay: molar heat capacity at constant volume; wn = mass fraction of the nth substance listed
Conditions: Liquid, Vacuum adiabatic calorimetry, w2 = 0.4981

FC(F)C(F)(F)F [pentafluoroethane] + FCF
Conditions | molar heat capacity at constant volume [J/K/mol]
332.15 K, 7002 kPa | 71.46 ± 3.3
333.15 K, 7333 kPa | 71.39 ± 3.3
333.15 K, 7355 kPa | 71.82 ± 3.3
333.15 K, 7370 kPa | 69.13 ± 3.2
334.15 K, 7700 kPa | 71.17 ± 3.3
334.15 K, 7723 kPa | 71.02 ± 3.2
334.15 K, 7736 kPa | 71.24 ± 3.3
335.15 K, 8069 kPa | 71.02 ± 3.2
335.15 K, 8090 kPa | 72.62 ± 3.3
335.15 K, 8104 kPa | 70.51 ± 3.2
336.15 K, 8438 kPa | 70.73 ± 3.3
336.15 K, 8457 kPa | 69.5 ± 3.1
336.15 K, 8472 kPa | 70.88 ± 3.3
337.15 K, 8807 kPa | 71.02 ± 3.4
337.15 K, 8826 kPa | 71.53 ± 3.2
337.15 K, 8840 kPa | 69.42 ± 3.3
338.15 K, 9176 kPa | 71.02 ± 3.2
338.15 K, 9194 kPa | 71.39 ± 3.2
338.15 K, 9209 kPa | 69.42 ± 3.1
339.15 K, 9546 kPa | 70.66 ± 3.6
339.15 K, 9563 kPa | 71.39 ± 3.2
339.15 K, 9579 kPa | 69.57 ± 3.5
340.15 K, 9916 kPa | 70.3 ± 3.2
340.15 K, 9933 kPa | 70.37 ± 3.2
340.15 K, 9949 kPa | 68.91 ± 3.1
341.15 K, 10286 kPa | 70.44 ± 3.2
341.15 K, 10302 kPa | 70.95 ± 3.2
341.15 K, 10320 kPa | 70.15 ± 3.3
342.15 K, 10657 kPa | 69.79 ± 3.5
342.15 K, 10672 kPa | 70.59 ± 3.2
342.15 K, 10691 kPa | 68.55 ± 3.4
343.15 K, 11028 kPa | 70.15 ± 3.2
343.15 K, 11043 kPa | 71.46 ± 3.2
343.15 K, 11061 kPa | 70.08 ± 3.2
344.15 K, 11399 kPa | 70.08 ± 3.3
344.15 K, 11413 kPa | 70.59 ± 3.2
344.15 K, 11431 kPa | 68.99 ± 3.2
345.15 K, 6187 kPa | 86.29 ± 3.9
345.15 K, 11770 kPa | 69.79 ± 3.1
345.15 K, 11784 kPa | 71.39 ± 3.2
345.15 K, 11802 kPa | 69.35 ± 3.1
346.15 K, 6420 kPa | 87.01 ± 3.9
346.15 K, 12143 kPa | 70.3 ± 3.2
346.15 K, 12155 kPa | 70.37 ± 3.2
346.15 K, 12174 kPa | 68.62 ± 3.1
347.15 K, 6655 kPa | 85.49 ± 3.9
347.15 K, 6657 kPa | 86.07 ± 3.9
347.15 K, 12515 kPa | 70.44 ± 3.2
347.15 K, 12527 kPa | 72.33 ± 3.3
347.15 K, 12547 kPa | 69.35 ± 3.1
348.15 K, 6890 kPa | 85.63 ± 3.9
348.15 K, 6893 kPa | 86.51 ± 3.9
348.15 K, 12887 kPa | 69.06 ± 3.1
348.15 K, 12899 kPa | 70.15 ± 3.2
348.15 K, 12919 kPa | 68.84 ± 3.1
349.15 K, 7127 kPa | 83.74 ± 3.8
349.15 K, 7130 kPa | 86.51 ± 3.9
349.15 K, 13259 kPa | 69.86 ± 3.2
349.15 K, 13271 kPa | 70.95 ± 3.2
349.15 K, 13292 kPa | 69.42 ± 3.2
350.15 K, 7364 kPa | 85.2 ± 3.9
350.15 K, 7368 kPa | 84.47 ± 3.8
350.15 K, 13631 kPa | 69.42 ± 3.1
350.15 K, 13643 kPa | 70.15 ± 3.2
350.15 K, 13664 kPa | 69.28 ± 3.1
351.15 K, 7602 kPa | 84.11 ± 3.8
351.15 K, 7606 kPa | 85.42 ± 3.9
351.15 K, 14004 kPa | 70.08 ± 3.2
351.15 K, 14015 kPa | 70.73 ± 3.2
351.15 K, 14036 kPa | 68.48 ± 3.1
352.15 K, 7841 kPa | 83.23 ± 3.8
352.15 K, 7845 kPa | 84.11 ± 3.8
352.15 K, 14377 kPa | 69.06 ± 3.1
352.15 K, 14387 kPa | 70.22 ± 3.2
352.15 K, 14409 kPa | 68.84 ± 3.1
353.15 K, 8080 kPa | 82.36 ± 3.7
353.15 K, 8084 kPa | 83.16 ± 3.8
353.15 K, 14750 kPa | 70.08 ± 3.2
353.15 K, 14761 kPa | 71.46 ± 3.2
353.15 K, 14783 kPa | 68.41 ± 3.1
354.15 K, 8320 kPa | 83.38 ± 3.8
354.15 K, 8324 kPa | 83.89 ± 3.8
354.15 K, 15123 kPa | 69.5 ± 3.1
354.15 K, 15133 kPa | 70.59 ± 3.2
354.15 K, 15157 kPa | 68.48 ± 3.1
355.15 K, 8560 kPa | 82.73 ± 3.7
355.15 K, 8565 kPa | 84.62 ± 3.8
355.15 K, 15496 kPa | 69.64 ± 3.1
355.15 K, 15507 kPa | 70.59 ± 3.2
355.15 K, 15531 kPa | 69.64 ± 3.1
356.15 K, 8801 kPa | 83.45 ± 3.8
356.15 K, 8806 kPa | 82.87 ± 3.7
356.15 K, 15869 kPa | 70.59 ± 3.2
356.15 K, 15880 kPa | 69.93 ± 3.1
356.15 K, 15904 kPa | 68.99 ± 3.3
